Reference: patent US7928060B2, “Amylin family polypeptide-6 (AFP-6) analogs and methods of making and using them” (Amylin Pharmaceuticals, Inc., priority 2004, dated 2011)
Where two headings read alike, the source gives them in different places. Bridge positions count the residues as written; N and C are the ends. Ends that are not written are not given here. Peptide text beside a SMILES is read from it.

Experiments:
[1] = system: calcitonin receptor; experiment: cAMP production in CHO cells (AlphaScreen); format: cell-based; details: CHO, 30,000 cells/well
[2] = target: T1, amylin receptors (Rattus norvegicus, UniProt P32214); experiment: amylin radioligand binding assay (125I-rat amylin, nucleus accumbens membranes); details: Table 6; read-out: Amylin receptor binding
T1 construct: This basal forebrain tissue, containing the nucleus accumbens and surrounding regions, was weighed and homogenized; from tissue; host or cells: rat basal forebrain (nucleus accumbens) membranes, male Sprague-Dawley rats
T1 sequence (P32214 25-516): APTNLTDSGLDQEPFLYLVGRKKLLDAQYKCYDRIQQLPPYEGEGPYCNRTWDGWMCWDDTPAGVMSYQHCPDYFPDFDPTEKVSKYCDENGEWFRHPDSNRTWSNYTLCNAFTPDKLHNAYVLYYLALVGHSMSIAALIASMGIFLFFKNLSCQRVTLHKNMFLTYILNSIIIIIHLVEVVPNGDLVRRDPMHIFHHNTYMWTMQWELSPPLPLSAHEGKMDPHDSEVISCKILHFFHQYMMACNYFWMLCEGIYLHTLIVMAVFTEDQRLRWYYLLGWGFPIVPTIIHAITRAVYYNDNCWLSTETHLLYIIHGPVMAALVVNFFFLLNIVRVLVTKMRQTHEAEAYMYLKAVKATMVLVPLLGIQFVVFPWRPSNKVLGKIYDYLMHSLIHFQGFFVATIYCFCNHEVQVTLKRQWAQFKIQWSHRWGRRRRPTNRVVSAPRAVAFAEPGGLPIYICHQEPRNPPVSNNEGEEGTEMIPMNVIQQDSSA
Experimental: Unlabeled peptides were obtained from BACHEM Inc. (Torrance, Calif.).
Male Sprague-Dawley® rats (200-250) grams were sacrificed by decapitation. Brains were removed and place in cold phosphate-buffered saline (PBS). From the ventral surface, cuts were made rostral to the hypothalamus, bounded laterally by the olfactory tracts and extending at a 45° angle medially from these tracts. […] Membranes were washed three times in fresh buffer by centrifugation for 15 minutes at 48,000×g. The final membrane pellet was resuspended in 20 mM HEPES buffer containing 0.2 mM phenylmethylsulfonyl fluoride (PMSF).
Solutions were incubated for 60 minutes at 2 C. […] Filters were washed immediately before filtration with 5 ml cold PBS, and immediately after filtration with 15 ml cold PBS. […] Competition curves were generated by measuring binding in the presence of 10^−12 to 10^−6 M unlabeled test compound and were analyzed by nonlinear regression using a 4-parameter logistic equation (INPLOT program; […] Software, San Diego, Calif.).

[3] = target: T2, calcitonin receptor (Rattus norvegicus, UniProt P32214); experiment: calcitonin receptor binding assay (rCalcitonin RBA); details: Table 6; read-out: CT receptor binding
T2 sequence (P32214 25-516): T1 sequence (P32214 25-516)

[4] = target: adrenomedullin receptor (Homo sapiens, UniProt O60895+Q16602); experiment: adrenomedullin (ADM) receptor binding assay; details: Table 6
Chain of adrenomedullin receptor (Q16602 23-461): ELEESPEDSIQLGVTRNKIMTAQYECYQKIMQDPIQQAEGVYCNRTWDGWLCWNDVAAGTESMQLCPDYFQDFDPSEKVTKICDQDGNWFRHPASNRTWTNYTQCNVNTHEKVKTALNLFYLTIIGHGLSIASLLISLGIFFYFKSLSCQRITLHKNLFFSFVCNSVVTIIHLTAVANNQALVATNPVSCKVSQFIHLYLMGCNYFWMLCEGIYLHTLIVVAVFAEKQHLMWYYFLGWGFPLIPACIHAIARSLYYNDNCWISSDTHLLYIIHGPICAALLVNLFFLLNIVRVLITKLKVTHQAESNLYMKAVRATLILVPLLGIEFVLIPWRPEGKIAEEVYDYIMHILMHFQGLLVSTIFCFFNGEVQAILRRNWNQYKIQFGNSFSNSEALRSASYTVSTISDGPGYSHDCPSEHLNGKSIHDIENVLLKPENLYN
Chain of adrenomedullin receptor (O60895 43-175): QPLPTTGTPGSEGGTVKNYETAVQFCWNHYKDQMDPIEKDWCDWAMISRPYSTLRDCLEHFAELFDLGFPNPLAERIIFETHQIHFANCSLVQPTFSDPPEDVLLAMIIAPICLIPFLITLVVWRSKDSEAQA

Compound | EC50 ([1]; average of three experiments, read-out: Average EC50) [nM] | EC50 ([1]; read-out: Experiment 1 EC50) [nM] | EC50 ([1]; read-out: Experiment 2 EC50) [nM] | EC50 ([1]; read-out: Experiment 3 EC50) [nM] | IC50 [2] [nM] | IC50 [3] [nM] | IC50 [4] [nM]
CC[C@H](C)[C@H](NC(=O)[C@H](C)NC(=O)[C@@H](NC(=O)[C@H](CCC(N)=O)NC(=O)[C@@H]1CCCN1C(=O)[C@H](Cc1ccccc1)NC(=O)[C@@H](NC(=O)[C@H](Cc1c[nH]cn1)NC(=O)[C@H](Cc1ccccc1)NC(=O)[C@H](CCCCN)NC(=O)[C@H](CC(N)=O)NC(=O)[C@H](Cc1ccccc1)NC(=O)[C@H](CC(=O)O)NC(=O)[C@H](CCC(N)=O)NC(=O)[C@@H](NC(=O)[C@H](Cc1ccc(O)cc1)NC(=O)[C@@H](NC(=O)CNC(=O)[C@H](CC(C)C)NC(=O)[C@H](CCSC)NC(=O)[C@@H]1CSSC[C@H](N)C(=O)NCC(=O)N[C@@H](CC(N)=O)C(=O)N[C@@H](CC(C)C)C(=O)N[C@@H](CO)C(=O)N[C@@H]([C@@H](C)O)C(=O)N1)[C@@H](C)O)[C@@H](C)O)[C@@H](C)O)[C@@H](C)O)C(=O)NCC(=O)N[C@H](C(=O)NCC(=O)N[C@@H](C)C(=O)N1CCC[C@H]1C(N)=O)C(C)C [SEQ ID NO: 6] | 0.097 | 0.077 | 0.14 | 0.075 |  |  | 
CSCC[C@H](NC(=O)[C@H](CC(C)C)NC(=O)[C@H](CCC(N)=O)NC(=O)[C@H](Cc1c[nH]c2ccccc12)NC(=O)[C@H](CC(C)C)NC(=O)[C@H](CCCNC(=N)N)NC(=O)[C@H](Cc1c[nH]cn1)NC(=O)[C@H](CO)NC(=O)[C@H](CC(C)C)NC(=O)[C@H](CC(N)=O)NC(=O)[C@H](CCC(N)=O)NC(=O)[C@@H](NC(=O)[C@H](CCC(N)=O)NC(=O)[C@@H]1CSSC[C@H](NC(=O)CNC(=O)[C@@H](N)C(C)C)C(=O)N[C@@H](C(C)C)C(=O)N[C@@H](CC(C)C)C(=O)NCC(=O)N[C@@H]([C@@H](C)O)C(=O)N1)C(C)C)C(=O)NCC(=O)N1CCC[C@H]1C(=O)N[C@@H](C)C(=O)NCC(=O)N[C@@H](CCCNC(=N)N)C(=O)N[C@@H](CCC(N)=O)C(=O)N[C@@H](CC(=O)O)C(=O)N[C@@H](CO)C(=O)N[C@@H](C)C(=O)N1CCC[C@H]1C(=O)N[C@H](C(=O)N[C@@H](CC(=O)O)C(=O)N1CCC[C@H]1C(=O)N[C@@H](CO)C(=O)N[C@@H](CO)C(=O)N1CCC[C@H]1C(=O)N[C@@H](Cc1c[nH]cn1)C(=O)N[C@@H](CO)C(=O)N[C@@H](Cc1ccc(O)cc1)C(N)=O)C(C)C [compound 2] |  |  |  |  | 12 | 24 | 6.4
CC(C)C[C@@H]1NC(=O)[C@H](CC(N)=O)NC(=O)CNC(=O)[C@@H](NC(=O)CNC(=O)[C@@H](N)C(C)C)CSSC[C@@H](C(=O)N[C@@H](CCC(N)=O)C(=O)N[C@H](C(=O)N[C@@H](CCC(N)=O)C(=O)N[C@@H](CC(N)=O)C(=O)N[C@@H](CC(C)C)C(=O)N[C@@H](CO)C(=O)N[C@@H](Cc2c[nH]cn2)C(=O)N[C@@H](CCCNC(=N)N)C(=O)N[C@@H](CC(C)C)C(=O)N[C@@H](Cc2c[nH]c3ccccc23)C(=O)N[C@@H](CCC(N)=O)C(=O)N[C@@H](CC(C)C)C(=O)N[C@@H](CCCNC(=N)N)C(=O)N[C@@H](CCC(N)=O)C(=O)N[C@@H](CC(=O)O)C(=O)N[C@@H](CO)C(=O)N[C@@H](C)C(=O)N2CCC[C@H]2C(=O)N[C@H](C(=O)N[C@@H](CC(=O)O)C(=O)N2CCC[C@H]2C(=O)N[C@@H](CO)C(=O)N[C@@H](CO)C(=O)N2CCC[C@H]2C(=O)N[C@@H](Cc2c[nH]cn2)C(=O)N[C@@H](CO)C(=O)N[C@@H](Cc2ccc(O)cc2)C(N)=O)C(C)C)C(C)C)NC(=O)[C@H]([C@@H](C)O)NC(=O)[C@H](CO)NC1=O [compound 29] (H-VGCGNLSTCQVQNLSHRLWQLRQDSAPVDPSSPHSY-NH2; disulfide 3-9 (inferred)) |  |  |  |  |  | 9 | ≥ 1000
CSCC[C@H](NC(=O)[C@H](CC(C)C)NC(=O)[C@H](CCC(N)=O)NC(=O)[C@H](Cc1c[nH]c2ccccc12)NC(=O)[C@H](CC(C)C)NC(=O)[C@H](CCCNC(=N)N)NC(=O)[C@H](Cc1c[nH]cn1)NC(=O)[C@H](CO)NC(=O)[C@H](CC(C)C)NC(=O)[C@H](CC(N)=O)NC(=O)[C@H](CCC(N)=O)NC(=O)[C@@H](NC(=O)[C@H](CCC(N)=O)NC(=O)[C@@H]1CSSC[C@H](NC(=O)CNC(=O)[C@@H](N)C(C)C)C(=O)N[C@@H](C(C)C)C(=O)N[C@@H](CC(C)C)C(=O)NCC(=O)N[C@@H]([C@@H](C)O)C(=O)N1)C(C)C)C(=O)NCC(=O)N1CCC[C@H]1C(=O)N[C@@H](C)C(=O)NCC(=O)N[C@@H](CCCNC(=N)N)C(=O)N[C@@H](CCC(N)=O)C(=O)N[C@@H](CC(=O)O)C(=O)N[C@@H](CO)C(=O)N[C@@H](C)C(=O)N1CCC[C@H]1C(=O)N[C@H](C(=O)N[C@@H](CCC(=O)O)C(=O)N1CCC[C@H]1C(=O)N[C@@H](CO)C(=O)N[C@@H](CO)C(=O)N1CCC[C@H]1C(=O)N[C@@H](Cc1c[nH]cn1)C(=O)N[C@@H](CO)C(=O)N[C@@H](Cc1ccc(O)cc1)C(N)=O)C(C)C [compound 35] (H-VGCVLGTCQVQNLSHRLWQLMGPAGRQDSAPVEPSSPHSY-NH2; disulfide 3-8 (inferred)) |  |  |  |  | 17 | 153 | 37
CC(C)C[C@H](NC(=O)[C@H](CCC(N)=O)NC(=O)[C@H](Cc1c[nH]c2ccccc12)NC(=O)[C@H](CC(C)C)NC(=O)[C@H](CCCNC(=N)N)NC(=O)[C@H](Cc1c[nH]cn1)NC(=O)[C@H](CO)NC(=O)[C@H](CC(C)C)NC(=O)[C@H](CC(N)=O)NC(=O)[C@H](CCC(N)=O)NC(=O)[C@@H](NC(=O)[C@H](CCC(N)=O)NC(=O)[C@@H]1CSSC[C@H](NC(=O)CNC(=O)[C@@H](N)C(C)C)C(=O)N[C@@H](C(C)C)C(=O)N[C@@H](CC(C)C)C(=O)NCC(=O)N[C@@H]([C@@H](C)O)C(=O)N1)C(C)C)C(=O)N[C@@H](CCCNC(=N)N)C(=O)N[C@@H](CCC(N)=O)C(=O)N[C@@H](CC(=O)O)C(=O)N[C@@H](CO)C(=O)N[C@@H](C)C(=O)N1CCC[C@H]1C(=O)N[C@H](C(=O)N[C@@H](CCC(=O)O)C(=O)N1CCC[C@H]1C(=O)N[C@@H](CO)C(=O)N[C@@H](CO)C(=O)N1CCC[C@H]1C(=O)N[C@@H](Cc1c[nH]cn1)C(=O)N[C@@H](CO)C(=O)N[C@@H](Cc1ccc(O)cc1)C(N)=O)C(C)C [compound 36] (H-VGCVLGTCQVQNLSHRLWQLRQDSAPVEPSSPHSY-NH2; disulfide 3-8 (inferred)) |  |  |  |  | 39 | 198 | ≥ 1000
CC(C)C[C@H](NC(=O)[C@H](CCC(N)=O)NC(=O)[C@H](Cc1c[nH]c2ccccc12)NC(=O)[C@H](CC(C)C)NC(=O)[C@H](CCCNC(=N)N)NC(=O)[C@H](Cc1c[nH]cn1)NC(=O)[C@H](CO)NC(=O)[C@H](CC(C)C)NC(=O)[C@H](CC(N)=O)NC(=O)[C@H](CCC(N)=O)NC(=O)[C@@H](NC(=O)[C@H](CCC(N)=O)NC(=O)[C@@H]1CSSC[C@H](NC(=O)CN)C(=O)N[C@@H](CC(N)=O)C(=O)N[C@@H]([C@@H](C)O)C(=O)N[C@@H](C)C(=O)N[C@@H]([C@@H](C)O)C(=O)N1)C(C)C)C(=O)N[C@@H](CCCNC(=N)N)C(=O)N[C@@H](CCC(N)=O)C(=O)N[C@@H](CC(=O)O)C(=O)N[C@@H](CO)C(=O)N[C@@H](C)C(=O)N1CCC[C@H]1C(=O)N[C@H](C(=O)N[C@@H](CCC(=O)O)C(=O)N1CCC[C@H]1C(=O)N[C@@H](CO)C(=O)N[C@@H](CO)C(=O)N1CCC[C@H]1C(=O)N[C@@H](Cc1c[nH]cn1)C(=O)N[C@@H](CO)C(=O)N[C@@H](Cc1ccc(O)cc1)C(N)=O)C(C)C [compound 37] (H-GCNTATCQVQNLSHRLWQLRQDSAPVEPSSPHSY-NH2; disulfide 2-7 (inferred); N-terminus assumed) |  |  |  |  | 39 | 121 | ≥ 1000
H-GMVLGTMQVQNLSHRLWQLMGPAGRQDSAPVDPSSPHSY-NH2 [compound 26] |  |  |  |  |  | > 1000 | 37
H-TQAQLLRVGCSNLSTCQVQNLSHRLWQLMGPAGRQDSAPVDPSSPHSY-NH2 (disulfide 10-16 (inferred)) [compound 20] |  |  |  |  |  | 16 | 36
H-TQAQLLRVGMVLGTMQVQNLSHRLWQLMGPAGRQDSAPVDPSSPHSY-NH2 [compound 25] |  |  |  |  |  | > 1000 | 120
TQAQLLRVGCNTATCQVQNLSHRLWQLMGPAGRQDSAPVDPSSPHSY-NH2 (disulfide 10-15 (inferred)) [compound 21] |  |  |  |  |  | 17 | 47
TQAQLLRVGCVLGTCQVQNLSHRLWQLMGPAGRQESAPVEPSSPHSY-NH2 (disulfide 10-15 (inferred)) [compound 32] |  |  |  |  | 16 |  | 7.1
TQAQLLRVGCVLGTCQVQNLSHRLWQLRQDSAPVDPSSPHSY-NH2 (disulfide 10-15 (inferred)) [compound 16] |  |  |  |  |  | 22 | ≥ 1000
